Results reported in patent EP4756027A1, “DOUBLE-STRANDED RIBONUCLEIC ACID TARGETING PD-L1” (Chia Tai Tianqing Pharmaceutical Group Co., Ltd., priority 2023, dated 2025).

Tests used:
[1] = test system: PD-L1 mRNA; assay: Activity evaluation A in human PD-L1 model mice (liver PD-L1 mRNA, qPCR); type: in vivo; conditions: liver tissue, 10 mg/kg subcutaneous single dose, 14 days after treatment, vs PBS group
Method: (§1) Male human PD-L1 mice (purchased from Shanghai Model Organisms Center, Inc.) aged 6-8 weeks were randomized by weight, with 3 mice in each group. The groups were designated as a PBS group and various sample groups (dsRNA ligand conjugate of the present application).
(§2) Each sample group (dsRNA ligand conjugate of the present application) received a 1 mg/mL solution prepared in 1× PBS (pH 7.4).
Each mouse in the PBS group was subcutaneously injected with 10 mL/kg body weight of 1× PBS (pH 7.4), and each mouse in the sample groups (dsRNA ligand conjugate of the present application) was subcutaneously injected with the corresponding solution prepared as described above. The administration volume for each animal was 10 mL/kg body weight, and the administration dose was 10 mg/kg body weight. The day of the first dose was designated as day 0. All mice were sacrificed 14 days after the treatment, and the liver was collected and preserved in 1.5 mL sterile EP tubes containing 1 mL of animal tissue RNA stabilizing solution (Shanghai Beyotime Biotech Inc., Cat. No. R0118). After being preserved in a refrigerator at 4 °C for 24 h, the liver was transferred to -80 °C for storage. […]
For each reverse transcription reaction system, the cDNA-containing solution described above was taken as the qPCR template, and 20 µL of the qPCR reaction system was prepared using the reagent provided by the ChamQ SYBRqPCR Master Mix kit (Vazyme Biotech Co., Ltd., Cat. No. Q311). […] The qPCR reaction system was placed on a LightCycler 480 fluorescent quantitative PCR system and amplified using the three-step method. […] The real-time fluorescent quantitative PCR system separately acquired the dissolution curves of the target gene PD-L1 and the internal reference gene GAPDH in the PCR amplification products to give the Ct values of the target gene PD-L1 and the internal reference gene GAPDH. […]

[2] = test system: PD-L1 mRNA; assay: Activity evaluation B in human PD-L1 model mice (liver PD-L1 mRNA, qPCR); type: in vivo; conditions: liver tissue, 10 mg/kg subcutaneous; for PD-L1 expression inhibition rate (%), Day 14 after treatment, Avg: day 14, vs PBS group; for PD-L1 expression inhibition rate (%), Day 28 after treatment, Avg: day 28, vs PBS group
Method: as §1, §2
Each mouse in the PBS group was subcutaneously injected with 10 mL/kg body weight of 1× PBS (pH 7.4), and each mouse in the sample groups (dsRNA ligand conjugate of the present application) was subcutaneously injected with the corresponding solution prepared as described above. The administration volume for each animal was 10 mL/kg body weight, and the administration dose was 10 mg/kg body weight. The day of the first dose was designated as day 0. The liver was collected on days 14 and 28 after the treatment and preserved in 1.5 mL sterile EP tubes containing 1 mL of animal tissue RNA stabilizing solution (Shanghai Beyotime Biotech Inc., Cat. No. R0118). After being preserved in a refrigerator at 4 °C for 24 h, the liver was transferred to -80 °C for storage. Then, the liver tissue of each mouse was homogenized using a tissue homogenizer, and the total RNA of the liver tissue of each mouse was separately extracted using the TaKaRa MiniBEST Universal RNA Extraction Kit (TAKARA, Cat. No. 9767) according to the procedures for total RNA extraction in the instructions.
The procedures of reverse transcription to synthesize cDNA and fluorescence quantitative PCR, the primers, and the calculation of inhibition rate are shown in Experimental Example 3.

Substance | PD-L1 expression inhibition rate (%), Avg [1] [%] | PD-L1 expression inhibition rate (%), Day 14 after treatment, Avg [2] [%] | PD-L1 expression inhibition rate (%), Day 28 after treatment, Avg [2] [%]
M01L01: dsRNA ligand conjugate; modified sense SEQ ID NO 31 with L01 ligand (GalNAc), antisense SEQ ID NO 32 (sense AGCAATATGACAATTGAATGA; antisense TCATTCAATTGTCATATTGCTAC; 2'-O-methyl and 2'-fluoro modified, full pattern not given here, GalNAc L01 on sense) | 59.3 |  | 
M02L01: dsRNA ligand conjugate; modified sense SEQ ID NO 33 with L01 ligand (GalNAc), antisense SEQ ID NO 34 (sense ATTTACTGTCACGGTTCCCAA; antisense TTGGGAACCGTGACAGTAATAGC; 2'-O-methyl and 2'-fluoro modified, full pattern not given here, GalNAc L01 on sense) | 67.1 |  | 
M03L01: dsRNA ligand conjugate; modified sense SEQ ID NO 35 with L01 ligand (GalNAc), antisense SEQ ID NO 36 (sense CTATTTATTTTGAGTCTGT; antisense ACAGACTCAAAATAAATAGGA; 2'-O-methyl and 2'-fluoro modified, full pattern not given here, GalNAc L01 on sense) | 78.2 |  | 
M07L01: dsRNA ligand conjugate; modified sense SEQ ID NO 43 with L01 ligand (GalNAc), antisense SEQ ID NO 44 (sense AATGAAAGGACTCACTTGGTA; antisense TACCAAGTGAGTCCTTTCATTTG; 2'-O-methyl and 2'-fluoro modified, full pattern not given here, GalNAc L01 on sense) |  | 49.0 | 
M08L01: dsRNA ligand conjugate; modified sense SEQ ID NO 45 with L01 ligand (GalNAc), antisense SEQ ID NO 46 (sense GCTGCATGATCAGCTATGGTA; antisense TACCATAGCTGATCATGCAGCGG; 2'-O-methyl and 2'-fluoro modified, full pattern not given here, GalNAc L01 on sense) |  | 26.7 | 
M10L01: dsRNA ligand conjugate; modified sense SEQ ID NO 49 with L01 ligand (GalNAc), antisense SEQ ID NO 50 (sense ATTGGTCATCCCAGAACTACA; antisense TGTAGTTCTGGGATGACCAATTC; 2'-O-methyl and 2'-fluoro modified, full pattern not given here, GalNAc L01 on sense) |  | 64.6 | 47.0
M11L01: dsRNA ligand conjugate; modified sense SEQ ID NO 51 with L01 ligand (GalNAc), antisense SEQ ID NO 52 (sense TATTTATTTTGAGTCTGTG; antisense CACAGACTCAAAATAAATAGG; 2'-O-methyl and 2'-fluoro modified, full pattern not given here, GalNAc L01 on sense) |  | 66.7 | 39.2
M12L01: dsRNA ligand conjugate; modified sense SEQ ID NO 55 with L01 ligand (GalNAc), antisense SEQ ID NO 56 (sense ATTTACTGTCACGGTTCCCAA; antisense TTGGGAACCGTGACAGTAAATGC; 2'-O-methyl and 2'-fluoro modified, full pattern not given here, GalNAc L01 on sense) |  | 78.6 | 50
